Assays:
[1] = Pharmacokinetics of MC and its metabolites in rat plasma after a single oral dose of MC (UHPLC-MS/MS); format: in vivo, Sprague Dawley rats; settings: for Tmax / half-life / Cmax / AUC(0-t): male, Sprague Dawley, single oral (intragastric) 100 mg/kg MC; for Tmax / half-life: n = 6; for Cmax: n = 6, metabolites quantified with the MC calibration curve; for AUC(0-t): n = 6, non-compartmental, metabolites quantified with the MC calibration curve, read-out: AUC0–48h; for AUC0–48h fold less than that of MC / Concentration in plasma samples relative to limit of quantification: single oral 100 mg/kg MC
Method: Sprague Dawley rats (male, 220–250 g) were purchased from the SPF Biotechnology Co., Ltd. (Beijing, China). Animals were acclimated under controlled conditions (temperature 22 °C ± 2 °C, humidity 50%–60%, 12 h light cycle) with unlimited fodder and water access for 7 days. The animal experiments were approved by the Animal Experiment Ethics Review Committee of Jiangsu Vocational College of Medicine, Yancheng, China (LLSQ-2021-031106).
After fasting overnight, six rats were orally administered 100 mg/kg MC suspended in 0.5% carboxymethyl cellulose sodium solution (10.0 mg/mL). Blood samples (about 300 μL) were collected into heparinized polythene tubes from the suborbital vein at 0, 0.25, 0.5, 1, 2, 3, 4, 8, 12, 24, 36 and 48 h after administration. All samples were immediately centrifuged at 6,125 g for 5 min at 4 °C to acquire plasma. The plasma samples were preserved at − 80 °C until further analysis.
For the measurement of the concentrations of MC and its metabolites, three times volume of methanol, containing 20 µL IS (puerarin, 2,160.0 ng/mL), were added to 100 µL plasma samples to precipitate protein. After vortexing for 2 min, the mixtures were centrifuged at 6,125 g for 10 min at 4 °C. The obtained supernatants were transferred to fresh tubes and allowed to be dried at room temperature by a nitrogen blowing instrument. Then, the remaining residues were re-dissolved with 100 µL methanol–water (80:20, v/v). Following centrifugation at 16,173 g for 10 min, the supernatants were transferred and used for UHPLC/[…] assessment. The injection volume of each sample was 1 μL.
The UHPLC-MS system comprised of an Acquity UPLC system (Waters, Milford, United States) and Waters TQD tandem mass spectrometer equipped with an electrospray ionization (ESI) source. A Waters ACQUITY BEH C18 column (100 × 2.1 mm, 1.7 μm, Waters, Milford, United States) was used for the chromatography separation. The column temperature was set to 40 °C. The mobile phase was composed of 0.1% formic acid in water (A) and 0.1% formic acid in acetonitrile (B) with a fixed flow rate at 0.4 mL/min. A gradient elution program was used as follows: 0–1.5 min, 5%–20% B; 1.5–5 min, 20%–30% B; 5–7 min, 30%–95% B; 7–9 min, 95% B; 9–11 min, 95% B.
The MS tune parameters were set as mentioned below. The desolvation of the source temperatures was set at 500 °C. The flow rate of nebulization gas was 650 L/h. The capillary voltage was set at 2.8 kV in the positive ionization mode. The cone voltages were maintained at 35 V for all the tested ingredients. All data were obtained via the multiple reaction monitoring (MRM) ion mode. The range of m/z for the data collection was set at 100–1,500 Da. Transitions, cone voltage and a collision energy of MC and its metabolites were optimized (Table 2). The mass spectrum of MC and the chemical structures of its MS/MS fragments is shown in Figure 4, and The mass spectrum of puerarin and the chemical structures of its MS/MS fragments is shown in Figure 5. MassLynx™ software version 4.1 was used for data acquisition and TargetLynx™ (Waters, Milford, MA, United States) was applied to quantitation.
The concentrations of MC in the collected plasma samples were quantified by the established calibration curve based on peak areas of corresponding components. Owing to the lack of corresponding standards, calibration curves for the metabolites were not established. It has been reported that the concentrations of the metabolites could be quantified according to calibration curve of parent drug. This is possible due to the structural similarity of their parent nucleus ([Zhang et al., 2015]). Therefore, in this study, the concentrations of the metabolites were calculated via the calibration curve of MC. The main pharmacokinetic parameters of MC and its metabolites were calculated via a non-compartmental model with the pharmacokinetic software, DAS (ver. 2.0, Chinese Pharmacology Association, Shanghai, China). […]

[2] = design: method as in Hasa et al., 2013; settings: ref Hasa et al., 2013; cited from earlier work
[3] = Stability of MC in rat plasma QC samples under storage conditions; format: in vitro ADME; settings: for Stability (re, %) 20 °C–25 °C/24 h / Stability (re, %) −20 °C/30 days / Stability (re, %) Freeze-thaw (3 cycles): n = 3; for Stability (re, %) Freeze-thaw (3 cycles): −20 °C to ambient temperature
Method: MC, accurately weighted, was firstly dissolved in methanol to acquire the standard stock solutions (250 μg/mL). A set of standard working solutions (25,000.0 ng/mL, 12,500.0 ng/mL, 2,500.0 ng/mL, 1,250.0 ng/mL, 625.0 ng/mL, 250.0 ng/mL, 125.0 ng/mL, 31.25 ng/mL) were obtained by diluting the stock solutions with methanol. An aliquot of 20 µL of these standard working solutions was then spiked into 1.5 mL polythene tubes and the solvent of methanol was evaporated at room temperature. Afterwards, the calibration standards (5,000.0 ng/mL, 2,500.0 ng/mL, 500.0 ng/mL, 250.0 ng/mL, 125.0 ng/mL, 50.0 ng/mL, 25.0 ng/mL, 6.25 ng/mL) were obtained by adding blank plasma (100 µL) into the tubes and fully mixing. The preparation method of quality control samples (QCs, 25.0 ng/mL, 1,250.0 ng/mL, 4,000.0 ng/mL) was identical with that of the calibration standards. All solutions were stored at 4 °C until further use.
All method validation procedures were performed strictly in accordance with the US FDA Guidance for Industry on Bioanalytical Method Validation ([FDA, 2018]). The assessment of selectivity was performed via comparing chromatograms among blank rat plasma (six different batches) and rat plasma spiked with MC and IS. The evaluation of linearity was carried out using weighted (1/x^2) least-squares analysis of two sets of calibration standards. Three different concentrations of Quality Check: QCs (n = 6) standards were used and detected on three different days to evaluate the intra-day and inter-day precision and the accuracy. Similarly, matrix effect and extraction recovery were assessed using three different concentrations of QCs (n = 6). The matrix effect was evaluated via calculating the peak area ratio of MC in post-spiked QCs and the solvent-substituted samples with same concentration. The extraction recovery was assessed via calculating the peak area ratio of MC in pre-spiked and post-spiked QCs. The stability of MC was examined using three concentrations of QCs (n = 3) under three different storage conditions, including freeze-thaw stability (three cycles from −20 °C to ambient temperature), short-term stability (storage at 20 °C–25 °C for 24 h), and long-term stability (storage at −20 °C for 30 days).
The stability was estimated by analyzing QCs (25.0, 1,250.0, and 4,000.0 ng/mL) after storing in three different conditions: three freeze-thaw cycles (−20 °C to ambient temperature), 20 °C–25 for 24 h, and - 20 °C for 30 days. As presented in Table 5, the deviations in the stabilities of MC ranged from - 8.5% to 13.5% under the three different storage conditions.

Tmax [1] | half-life [1] | Cmax [1] | AUC(0-t) [1] | AUC0–48h fold less than that of MC [1] | Concentration in plasma samples relative to limit of quantification [1] | SMILES | further results
52.8 ± 37.8 min | 204 ± 132 min | 1.6 ± 0.6 µM | 4 ± 1.1 µM·h | 58.7 fold |  | O=S(=O)(O)ONc1nccc(-c2c[nH]c3ccc(Br)cc23)n1 [M11] | 
 |  |  |  |  | lower than the limit of quantification | Nc1nccc(-c2cn(O)c3ccc(Br)cc23)n1 [M3] | 
30 ± 16.2 min | 264 ± 162 min | 6.4 ± 2 µM | 20.9 ± 8.5 µM·h | 11.1 fold |  | Nc1nccc(-c2cn(OS(=O)(=O)O)c3ccc(Br)cc23)n1 [M2] | 
 |  |  |  |  | lower than the limit of quantification | ONc1nccc(-c2cn(O)c3ccc(Br)cc23)n1 [M8] | 

Further lines, the compound ahead of its results:

SMILES | Tmax [1] | half-life [1] | Cmax [1] | AUC(0-t) [1] | AUC0–48h fold less than that of MC [1] | Concentration in plasma samples relative to limit of quantification [1] | further results
CC[C@]12CCCN3CCc4c(n(c5ccccc45)[C@@](O)(C(=O)OC)C1)[C@@H]32 [vincamine] |  |  |  |  |  |  | Bioavailability [2]: low bioavailability
Nc1nccc(-c2c[nH]c3ccc(Br)cc23)n1 [MC, Meridianin C] | 45 ± 16.2 min | 1060 ± 846 min | 44.8 ± 7 µM | 232 ± 85.9 µM·h |  |  | Stability (re, %) 20 °C–25 °C/24 h ([3]; rat plasma, 25.0 ng/mL): 12.5%; Stability (re, %) −20 °C/30 days ([3]; rat plasma, 25.0 ng/mL): 10.6%; Stability (re, %) Freeze-thaw (3 cycles) ([3]; rat plasma, 25.0 ng/mL): 13.5%; Stability (re, %) 20 °C–25 °C/24 h ([3]; rat plasma, 1,250.0 ng/mL): 7.9%; Stability (re, %) −20 °C/30 days ([3]; rat plasma, 1,250.0 ng/mL): 5.2%; Stability (re, %) Freeze-thaw (3 cycles) ([3]; rat plasma, 1,250.0 ng/mL): 12.6%; Stability (re, %) 20 °C–25 °C/24 h ([3]; rat plasma, 4,000.0 ng/mL): −6.8%; Stability (re, %) −20 °C/30 days ([3]; rat plasma, 4,000.0 ng/mL): −8.5%; Stability (re, %) Freeze-thaw (3 cycles) ([3]; rat plasma, 4,000.0 ng/mL): 9.3%; Stability in rat plasma (in words) ([3]; three freeze-thaw cycles, 20 °C–25 °C for 24 h, −20 °C for 30 days): stable
